Results published in ChEMBL document CHEMBL5150049, “The discovery of (1R, 3R)-1-(3-chloro-5-fluorophenyl)-3-(hydroxymethyl)-1,2,3,4-tetrahydroisoquinoline-6-carbonitrile, a potent and selective agonist of human transient receptor potential cation channel subfamily m member 5 (TRPM5) and evaluation of as a potential gastrointestinal prokinetic agent” (Bioorg Med Chem, 2022).
Converted amounts (≈) assume the structure as drawn. The source made the active and inactive calls. The rule behind the calls is not given here.

Columns and labels:
[1] = target: T1, Transient receptor potential cation channel subfamily M member 5 (Homo sapiens, UniProt Q9NZQ8); experiment: Agonist activity at human TRPM5 expressed in CHO-K1 cells assessed as increase in relative fluorescence unit measured for 2 mins by FLIPR based membrane potential assay; format: cell-based
T1 sequence (Q9NZQ8 whole entry): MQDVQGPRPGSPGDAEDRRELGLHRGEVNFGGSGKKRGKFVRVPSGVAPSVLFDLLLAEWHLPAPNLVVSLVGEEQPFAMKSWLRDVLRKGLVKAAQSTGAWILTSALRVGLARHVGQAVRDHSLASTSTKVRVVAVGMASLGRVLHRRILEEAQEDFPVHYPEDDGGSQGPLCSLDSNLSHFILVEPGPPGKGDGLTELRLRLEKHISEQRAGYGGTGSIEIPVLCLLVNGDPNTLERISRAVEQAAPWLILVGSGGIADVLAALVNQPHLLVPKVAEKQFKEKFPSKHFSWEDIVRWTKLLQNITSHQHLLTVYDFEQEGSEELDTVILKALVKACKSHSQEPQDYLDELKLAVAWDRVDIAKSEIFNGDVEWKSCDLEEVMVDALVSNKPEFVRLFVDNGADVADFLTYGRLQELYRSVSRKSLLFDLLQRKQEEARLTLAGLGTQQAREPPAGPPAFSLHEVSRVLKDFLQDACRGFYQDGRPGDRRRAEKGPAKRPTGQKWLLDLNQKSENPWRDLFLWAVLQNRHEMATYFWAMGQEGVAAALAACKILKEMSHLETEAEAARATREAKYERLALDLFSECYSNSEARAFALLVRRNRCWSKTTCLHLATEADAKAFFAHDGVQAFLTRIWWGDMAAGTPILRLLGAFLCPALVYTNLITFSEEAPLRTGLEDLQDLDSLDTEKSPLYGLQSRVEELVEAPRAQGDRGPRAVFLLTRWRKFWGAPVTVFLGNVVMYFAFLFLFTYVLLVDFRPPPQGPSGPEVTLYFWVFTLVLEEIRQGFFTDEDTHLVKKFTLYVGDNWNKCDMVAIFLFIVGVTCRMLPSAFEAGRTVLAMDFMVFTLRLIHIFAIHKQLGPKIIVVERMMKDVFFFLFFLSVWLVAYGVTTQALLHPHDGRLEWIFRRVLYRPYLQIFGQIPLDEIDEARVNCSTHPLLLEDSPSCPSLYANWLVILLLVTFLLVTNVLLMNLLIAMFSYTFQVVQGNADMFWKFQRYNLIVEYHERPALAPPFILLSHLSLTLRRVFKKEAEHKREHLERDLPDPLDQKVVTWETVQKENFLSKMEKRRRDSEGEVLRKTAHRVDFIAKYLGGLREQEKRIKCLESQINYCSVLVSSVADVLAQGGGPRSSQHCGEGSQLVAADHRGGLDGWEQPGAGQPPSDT

[2] = target: Transient receptor potential cation channel subfamily M member 4 (Homo sapiens, UniProt Q8TD43); experiment: Agonist activity at human TRPM4 expressed in CHO-K1 cells assessed as increase in relative fluorescence unit by measuring membrane potential by FLIPR assay; format: cell-based
Transient receptor potential cation channel subfamily M member 4, sequence (Q8TD43 whole entry): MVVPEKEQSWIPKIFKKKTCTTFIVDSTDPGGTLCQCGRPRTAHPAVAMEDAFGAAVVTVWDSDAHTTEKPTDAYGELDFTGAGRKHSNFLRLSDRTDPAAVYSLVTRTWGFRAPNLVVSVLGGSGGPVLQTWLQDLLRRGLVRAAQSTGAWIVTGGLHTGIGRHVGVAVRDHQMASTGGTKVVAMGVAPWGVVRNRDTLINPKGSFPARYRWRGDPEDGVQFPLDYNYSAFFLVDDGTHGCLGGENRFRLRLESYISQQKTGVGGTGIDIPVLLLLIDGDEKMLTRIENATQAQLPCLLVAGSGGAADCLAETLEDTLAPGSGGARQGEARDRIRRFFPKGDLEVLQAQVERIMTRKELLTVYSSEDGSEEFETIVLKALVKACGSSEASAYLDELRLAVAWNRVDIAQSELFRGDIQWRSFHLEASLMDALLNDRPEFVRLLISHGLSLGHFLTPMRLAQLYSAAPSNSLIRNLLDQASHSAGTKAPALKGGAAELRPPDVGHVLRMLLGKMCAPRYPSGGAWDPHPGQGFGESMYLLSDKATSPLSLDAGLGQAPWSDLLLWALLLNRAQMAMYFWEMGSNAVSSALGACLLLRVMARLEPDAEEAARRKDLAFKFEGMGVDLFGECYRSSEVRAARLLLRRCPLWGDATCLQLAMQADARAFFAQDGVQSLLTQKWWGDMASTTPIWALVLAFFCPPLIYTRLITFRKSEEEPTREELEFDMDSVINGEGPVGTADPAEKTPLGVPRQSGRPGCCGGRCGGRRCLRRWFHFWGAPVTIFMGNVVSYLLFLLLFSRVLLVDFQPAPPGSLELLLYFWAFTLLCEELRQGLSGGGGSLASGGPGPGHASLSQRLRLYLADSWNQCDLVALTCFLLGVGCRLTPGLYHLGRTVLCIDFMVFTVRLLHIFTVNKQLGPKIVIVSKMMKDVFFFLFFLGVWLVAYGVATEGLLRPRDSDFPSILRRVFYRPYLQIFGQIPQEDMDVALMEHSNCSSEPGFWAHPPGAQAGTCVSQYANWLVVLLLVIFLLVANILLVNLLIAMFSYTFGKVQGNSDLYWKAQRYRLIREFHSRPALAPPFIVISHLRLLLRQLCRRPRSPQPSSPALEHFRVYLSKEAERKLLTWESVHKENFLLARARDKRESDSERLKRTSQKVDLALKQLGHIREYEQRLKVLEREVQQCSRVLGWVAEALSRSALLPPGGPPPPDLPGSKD

[3] = target: T1, Transient receptor potential cation channel subfamily M member 5; experiment: Agonist activity at human TRPM5 in HEK293T cells by FLIPR based assay; format: cell-based
[4] = Intrinsic clearance in Sprague-Dawley rat; format: ADME
[5] = Half-life in Sprague-Dawley rat; format: ADME; conditions: in vivo
[6] = Metabolic stability in human liver microsomes assessed as intrinsic clearance; format: ADME, Microsome; conditions: read-out: CLH
[7] = target: T1, Transient receptor potential cation channel subfamily M member 5; experiment: Agonist activity at TRPM5 (unknown origin)
[8] = Solubility of the compound in JP2 solution; format: physicochemical
[9] = target: T1, Transient receptor potential cation channel subfamily M member 5; experiment: Agonist activity at human TRPM5 expressed in HEK cells by whole cell electrophysiology method; format: cell-based
[10] = Metabolic stability in human liver microsomes assessed as half life; format: ADME, Microsome; conditions: liver microsomes
[11] = Solubility of the compound in JP1 solution; format: physicochemical
[12] = target: T2, Transient receptor potential cation channel subfamily M member 5 (Homo sapiens) (UniProt Q9NZQ8); experiment: Agonist activity at human TRPM5 expressed in human Caco-2 cells assessed as increase in acetylcholine release at 50 uM incubated for 18 hrs by mass spectrometric analysis; format: cell-based; conditions: filed as agonist
T2 sequence (whole entry): T1 sequence (Q9NZQ8 whole entry)

Mus musculus [13] = experiment: Induction of gastrointestinal motility in CD-1 mouse assessed as increase in fecal weight at 10 to 100 mg/kg, po measured upto 6 hrs; format: functional, organism-based; conditions: dose 10-100 mg/kg
[14] = target: T3, Transient receptor potential cation channel subfamily M member 5 (Mus musculus) (UniProt Q9JJH7); experiment: Binding affinity to mouse colon mucosal epithelium TRPM5 assessed as increase in short circuit current; format: tissue-based; conditions: Colonic epithelium, filed as agonist
T3 sequence (whole entry): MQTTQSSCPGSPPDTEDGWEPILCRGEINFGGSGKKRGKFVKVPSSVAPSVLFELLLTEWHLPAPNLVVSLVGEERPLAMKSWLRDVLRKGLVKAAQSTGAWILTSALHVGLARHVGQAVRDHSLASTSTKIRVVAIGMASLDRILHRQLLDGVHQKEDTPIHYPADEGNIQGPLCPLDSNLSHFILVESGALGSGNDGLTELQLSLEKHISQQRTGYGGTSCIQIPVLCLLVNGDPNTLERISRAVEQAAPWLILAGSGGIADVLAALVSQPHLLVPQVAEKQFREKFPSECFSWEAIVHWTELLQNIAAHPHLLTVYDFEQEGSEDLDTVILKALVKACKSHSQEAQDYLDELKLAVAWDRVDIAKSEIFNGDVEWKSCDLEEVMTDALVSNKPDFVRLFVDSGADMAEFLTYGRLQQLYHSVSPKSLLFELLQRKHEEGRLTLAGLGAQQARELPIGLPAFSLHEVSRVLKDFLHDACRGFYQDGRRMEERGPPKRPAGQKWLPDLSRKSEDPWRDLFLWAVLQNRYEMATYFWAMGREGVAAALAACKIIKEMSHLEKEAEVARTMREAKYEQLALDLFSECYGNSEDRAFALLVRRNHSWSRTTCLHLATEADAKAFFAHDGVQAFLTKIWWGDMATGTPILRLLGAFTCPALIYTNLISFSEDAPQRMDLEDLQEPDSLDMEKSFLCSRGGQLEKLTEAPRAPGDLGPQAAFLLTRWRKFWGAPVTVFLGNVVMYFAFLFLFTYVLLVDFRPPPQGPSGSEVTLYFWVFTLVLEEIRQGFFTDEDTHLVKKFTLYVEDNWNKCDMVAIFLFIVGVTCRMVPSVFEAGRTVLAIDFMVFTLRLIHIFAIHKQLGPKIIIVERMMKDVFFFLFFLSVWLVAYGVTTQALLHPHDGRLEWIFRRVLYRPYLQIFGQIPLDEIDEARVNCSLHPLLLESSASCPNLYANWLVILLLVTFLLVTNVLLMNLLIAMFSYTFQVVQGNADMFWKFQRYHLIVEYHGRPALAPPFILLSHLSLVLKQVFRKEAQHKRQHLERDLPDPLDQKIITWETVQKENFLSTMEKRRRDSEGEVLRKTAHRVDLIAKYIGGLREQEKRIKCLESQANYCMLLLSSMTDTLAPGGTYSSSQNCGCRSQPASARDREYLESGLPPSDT

Mus musculus [15] = experiment: Induction of gastrointestinal motility in CD-1 mouse assessed as increase in fecal water content at 10 to 100 mg/kg, po measured upto 6 hrs; format: functional, organism-based; conditions: dose 10-100 mg/kg

Row | SMILES | EC50 [1] [µM] | other results
1 | Cc1ccc2c(c1)[C@H](c1ccccc1)N[C@H](CO)C2 | 10 | 
2 | OC[C@@H]1Cc2ccc(Cl)cc2[C@H](c2cc(F)cc(F)c2)N1 | 0.2 | EC50 [2]: 0.589 µM
3 | C=CC(C)(C)c1cc2cc3c(cc2oc1=O)O[C@H](C(C)(C)OC(C)=O)C3 |  | EC50 [3]: 27 µM
4 | OC[C@H]1Cc2ccc(Cl)cc2[C@H](c2ccccc2)N1 | > 31.6 | 
5 | Cc1cc([C@@H]2N[C@H](CO)Cc3ccc(Cl)cc32)ccc1Cl | 1 | EC50 [2]: 25.7 µM
6 | OC[C@@H]1Cc2ccc(Cl)cc2[C@H](c2ccccn2)N1 | 7.94 | 
7 | OC[C@@H]1Cc2cc(Cl)c(F)cc2[C@H](c2ccccc2)N1 | 0.316 | 
8 | OC[C@@H]1Cc2cc(Cl)ccc2[C@H](c2ccccc2Cl)N1 | 1.58 | 
9 | COC[C@@H]1Cc2ccc(Cl)cc2[C@H](c2ccccc2)N1 | 15.8 | 
10 | OC[C@@H]1Cc2ccc(Cl)cc2[C@@H](c2ccccc2)N1 (racemic) | > 31.6 | 
11 | OC[C@@H]1Cc2cccc(Cl)c2[C@H](c2ccccc2)N1 | > 31.6 | 
12 | OC[C@@H]1Cc2ccc(Cl)cc2[C@H](c2cccc(F)c2)N1 | 0.316 | EC50 [2]: 1.7 µM
13 | N#Cc1cc(F)cc([C@@H]2N[C@H](CO)Cc3cc(Cl)ccc32)c1 | 0.251 | 
14 | C=CCNC(=S)/N=c1/sc2ccccc2n1C | 0.631 | CLint scaled [4]: 32.4 L/h/kg; half-life [5]: 2.6 min; CLint scaled [6]: 20.2 L/h/kg; EC50 [7]: 10 µM; solubility [8]: 0.9 µM (≈ 0.237 µg/mL); EC50 [9]: 9.4 µM; half-life [10]: 4.1 min; solubility [11]: 1.7 µM (≈ 0.448 µg/mL)
15 | OC[C@@H]1Cc2ccc(Cl)cc2[C@H](c2cccc(Cl)c2)N1 | 0.501 | EC50 [2]: 1.82 µM
16 | OC[C@@H]1Cc2cc(Cl)ncc2[C@H](c2cc(F)cc(Cl)c2)N1 | 2 | 
17 | N#Cc1ccc2c(c1)[C@H](c1cc(F)cc(Cl)c1)N[C@H](CO)C2 | 7.94 | 
18 | OC[C@@H]1Cc2ccc(Cl)cc2[C@H](c2cc(Cl)cc(Cl)c2)N1 | 0.2 | EC50 [2]: 8.91 µM

Row | SMILES | EC50 [1] [µM] | other results
19 | OC[C@@H]1Cc2cc(Cl)c(Cl)cc2[C@H](c2ccccc2)N1 | 0.0501 | 
20 | OC[C@@H]1Cc2ccc(Cl)cc2[C@H](c2ccncc2)N1 | > 31.6 | 
21 | OCc1cc2ccc(Cl)cc2c(-c2ccccc2)n1 | > 31.6 | 
22 | OC[C@@H]1Cc2cc(Cl)ccc2[C@H](c2ccccc2)N1 | 0.501 | EC50 [2]: 26.3 µM
23 | OC[C@@H]1Cc2ccccc2[C@H](c2ccccc2)N1 | > 31.6 | 
24 | CN1[C@H](CO)Cc2ccc(Cl)cc2[C@@H]1c1ccccc1 | > 31.6 | 
25 | N#Cc1ccc2c(c1)C[C@H](CO)N[C@@H]2c1cc(F)cc(Cl)c1 |  | Activity [12]: Active; Activity (Mus musculus [13]): Active; Activity [14]: Active; Activity (Mus musculus [15]): Active
26 | OC[C@@H]1Cc2cc(Cl)cnc2[C@H](c2cc(F)cc(Cl)c2)N1 | 3.16 | 
27 | Clc1cnc(CNc2cc3sncc3cc2Cl)s1 |  | Activity [12]: Active
28 | N#Cc1ccc2c(c1)C[C@@H](CO)N[C@H]2c1cc(F)cc(Cl)c1 | 20 | 
29 | Cc1ccccc1[C@@H]1N[C@H](CO)Cc2ccc(Cl)cc21 | > 31.6 | 
30 | OC[C@@H]1Cc2ccc(Cl)cc2[C@H](c2ccccc2)N1 (racemic) | 0.794 | EC50 [2]: 24.5 µM
31 | OC[C@@H]1Cc2cc(Cl)ccc2[C@H](c2cc(F)cc(Cl)c2)N1 | 0.0631 | 
32 | OC[C@@H]1Cc2c(Cl)cccc2[C@H](c2ccccc2)N1 | 1.26 | 
33 | OC[C@@H]1Cc2ccc(Cl)cc2[C@H](c2cc(F)cc(Cl)c2)N1 | 0.1 | EC50 [2]: 1.35 µM
34 | Cc1ccc2c(c1)C[C@@H](CO)N[C@H]2c1ccccc1 | 10 | 
35 | Cc1ccc([C@@H]2N[C@H](CO)Cc3ccc(Cl)cc32)cc1 | 6.31 | 
36 | OC[C@@H]1Cc2ccc(Cl)cc2[C@H](c2cccnc2)N1 | 20 | 
